Assay results published in US7723307B2, “Amino acid derivatives and pharmaceutical uses thereof” (Aston University, priority 2003, dated 2010).

Key:
[1] = tested on: SNx rats; test: Renal function in subtotal nephrectomy (SNx) rats with inhibitor instilled into the kidney by osmotic minipump; type: in vivo, rat; conditions: 90 day SNx rats, inhibitor 50 mM instilled into kidney, 5 animals per group
Source text: Male Wistar rat of approximately 300 g weight was anaesthetised using 5% halothane and maintained at 3% for the duration of the surgical procedure. The rat was subjected to a ⅚th subtotal nephrectomy (SNx) by ligation of the left renal artery and vein followed by complete nephrectomy of the left kidney. The right kidney had both the upper and lower poles ligated followed by excision of both poles. A 9-cm cannula (0.32 mm bore) was sealed on one end and fenestrated between 3 and 12 mm from the sealed end. This was then inserted through the parenchyma (cut to cut/pole to pole) of the kidney so that the blunt end was just visible through one of the cut ends. This was then sealed in position using tissue glue on both ends of the kidney such that the fenestrated area was within the remnant kidney. The cannula was passed through the muscle wall, which was then stitched using reabsorbable sutures. The cannula was then attached to the regulator of a 2 ml osmotic minipump (Azlet osmotic minipump (2 ml4), Charles Rivers, UK) that was loaded (primed for 15 hrs at RT) with either PBS (SNx) or TGase inhibitor 281 or 283 (SNx+281 and SNx+283, respectively) at a concentration of 50 mM (delivery 1.5 μl per hour). The pump was then positioned subcutaneously on the right upper flank of the animal and the skin sutured. The animal was then switched onto oxygen and allowed to partially regain consciousness before being returned to the cage. The pump was changed every 28 days under halothane anaesthesia. […] The animal was then anaesthetised, the remnant kidney recovered and a terminal blood sample collected.
Proteinuria, creatinine clearance, serum clearance, urine creatinine and urine urea were carried out by standard clinical chemistry techniques (Johnson et al., 1997, J. Clin. Invest. 99:2950-2960). Creatinine and urea were measured by the standard autoanalyser technique and proteinura by the Biuret method (Johnson et al., supra). Data represent mean values ±SE, taken from 5 animals per group.

[2] = molecular target: T1, tissue transglutaminase (UniProt P08587); test: TGase-mediated crosslinking of fibronectin, SDS-PAGE; type: biochemical; conditions: compound 250 μM, TGase and fibronectin 50 μg/ml each, 37° C. for 2 hr
T1 sequence (P08587 1-690): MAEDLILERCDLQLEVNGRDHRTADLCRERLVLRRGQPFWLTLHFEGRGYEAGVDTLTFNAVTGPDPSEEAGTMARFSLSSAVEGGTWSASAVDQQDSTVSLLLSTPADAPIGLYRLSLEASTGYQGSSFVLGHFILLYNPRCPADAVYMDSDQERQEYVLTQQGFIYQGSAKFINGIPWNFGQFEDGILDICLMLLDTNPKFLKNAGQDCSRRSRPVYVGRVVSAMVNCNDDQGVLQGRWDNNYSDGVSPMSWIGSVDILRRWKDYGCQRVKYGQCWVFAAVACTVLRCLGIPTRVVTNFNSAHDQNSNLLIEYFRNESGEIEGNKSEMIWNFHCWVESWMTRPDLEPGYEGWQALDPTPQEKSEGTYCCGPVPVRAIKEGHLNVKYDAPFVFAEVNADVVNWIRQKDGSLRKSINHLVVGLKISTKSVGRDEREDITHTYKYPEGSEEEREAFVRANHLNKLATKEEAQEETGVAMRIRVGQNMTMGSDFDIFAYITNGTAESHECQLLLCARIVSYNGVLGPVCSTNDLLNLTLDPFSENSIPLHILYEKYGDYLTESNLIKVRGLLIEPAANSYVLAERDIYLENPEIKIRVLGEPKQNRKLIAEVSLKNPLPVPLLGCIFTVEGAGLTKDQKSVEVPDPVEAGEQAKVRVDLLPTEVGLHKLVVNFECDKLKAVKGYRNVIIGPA
Procedure: • 1. Preactivate TGase in 3 mM DTT (where applicable) on ice for 1 hr. • 2. Crosslink TGase with fibronectin in 40 mM Tris/100 mM NaCl at 50 μg/ml final concentration each, according to Table 1 below. Include non-activated Tgase/preactivated Tgase controls in the presence and absence of the inhibitors to investigate potential homodimer formation. • 3. Incubate at 37° C. for 2 hr to allow crosslink formation to take place. • 4. Solubilise crosslink in 2× Laemmli buffer. Vortex and spin down insoluble material. • 5. Load 20 μg of total protein (Tgase+Fn) on a 7% acrylamide SDS PAGE gel. Run gel at […] until dye escapes from the bottom of the gel. • 6. Stain with coomassie brilliant blue for 1 hr at RT. • 7. De-stain in 30% methanol/10% acetic acid at RT.
SDS-PAGE data showing tTGase-mediated crosslinking of fibronectin following treatment with exemplary compounds of the invention is shown in FIG. 22.

[3] = tested on: TGase; test: In situ TGase activity in kidney cryostat sections of treated SNx rats; type: in vivo, rat; conditions: SNx rats treated for 28 days, biotin cadaverine incorporation
Source text: Male Wistar rat of approximately 300 g weight was anaesthetised using 5% halothane and maintained at 3% for the duration of the surgical procedure. The rat was subjected to a ⅚th subtotal nephrectomy (SNx) by ligation of the left renal artery and vein followed by complete nephrectomy of the left kidney. The right kidney had both the upper and lower poles ligated followed by excision of both poles. A 9-cm cannula (0.32 mm bore) was sealed on one end and fenestrated between 3 and 12 mm from the sealed end. This was then inserted through the parenchyma (cut to cut/pole to pole) of the kidney so that the blunt end was just visible through one of the cut ends. This was then sealed in position using tissue glue on both ends of the kidney such that the fenestrated area was within the remnant kidney. The cannula was passed through the muscle wall, which was then stitched using reabsorbable sutures. […]
Rat kidneys treated in vivo with TGase inhibitors were snap-frozen in liquid nitrogen and 14 μm sections were cut using a cryostat and allowed to air-dry. […] Slides were viewed on a Leica TCSNT confocal microscope equipped with excitation and emission filters for Cy5, and emitted fluorescence was quantified with the software supplied by the manufacturer. […]

[4] = tested on: TGase; test: 14C-putrescine incorporation into N,N'-dimethyl casein in kidney homogenates of treated SNx rats; type: in vivo, rat; conditions: day 84
Source text: Male Wistar rat of approximately 300 g weight was anaesthetised using 5% halothane and maintained at 3% for the duration of the surgical procedure. The rat was subjected to a ⅚th subtotal nephrectomy (SNx) by ligation of the left renal artery and vein followed by complete nephrectomy of the left kidney. The right kidney had both the upper and lower poles ligated followed by excision of both poles. A 9-cm cannula (0.32 mm bore) was sealed on one end and fenestrated between 3 and 12 mm from the sealed end. This was then inserted through the parenchyma (cut to cut/pole to pole) of the kidney so that the blunt end was just visible through one of the cut ends. This was then sealed in position using tissue glue on both ends of the kidney such that the fenestrated area was within the remnant kidney. The cannula was passed through the muscle wall, which was then stitched using reabsorbable sutures. The cannula was then attached to the regulator of a 2 ml osmotic minipump (Azlet osmotic minipump (2 ml4), Charles Rivers, UK) that was loaded (primed for 15 hrs at RT) with either PBS (SNx) or TGase inhibitor 281 or 283 (SNx+281 and SNx+283, respectively) at a concentration of 50 mM (delivery 1.5 μl per hour). The pump was then positioned subcutaneously on the right upper flank of the animal and the skin sutured. […]

SMILES	Proteinuria, Mean [1] [mg/24 h]	Serum creatinine, Mean [1] [µM]	Serum urea, Mean [1] [mM/L]	Urine creatinine, Mean [1] [µM]	Urine urea, Mean [1] [mM/L]	tTGase-mediated crosslinking of fibronectin (FIG. 22) [2]	In situ TGase activity in kidney cryostat sections (FIG. 25a) [3]	TGase activity by 14C-putrescine incorporation in kidney homogenates (FIG. 25b) [4]
C[S+](C)CC(=O)CCC(NC(=O)C(Cc1ccccc1)NC(=O)OCc1ccccc1)C(=O)O [Compound 281, N-Benzyloxycarbonyl-L-phenylalanyl-6-dimethylsulfonium-5-oxo-L-norleucine]	503	208	22.32	4000	372	inhibition	inhibition	inhibition
CC(=O)CSc1n(C)cc[n+]1C.[Cl-] [Compound 283, 1,3-dimethyl-2-(2-oxopropylsulfanyl)-3H-1,3-diazol-1-ium-chloride, reference compound]	835	114	16.3	3140	272	–	inhibition	inhibition
C[S+](C)CC(=O)CCC(NC(=O)C(CCC(N)=O)NC(=O)OCc1ccccc1)C(=O)O [Compound 285, N-Benzyloxycarbonyl-L-glutaminyl-6-dimethylsulfonium-5-oxo-L-norleucine]	–	–	–	–	–	inhibition	–	–
